Compound	melting point [°C]
O=C(Nc1ccc(-n2ccnn2)c(F)c1)OCc1ccccc1	121 to 122
Brc1ccc(N2CCC3(CCNCC3)CC2)nc1	103 to 105
Cc1ncc(CNC(=O)c2ccc3n2Cc2ccccc2N(C(=O)CSc2ccc(Br)cc2)C3)c(CO)c1O	199 to 200
CS(=O)c1c[nH]c2c(Sc3nc4cc(Cl)ccc4[nH]3)ccc([N+](=O)[O-])c12 (stereo not given)	243 to 246
CCOc1nc(N)c2ncn(C3C=CCCC3)c2n1 (stereo not given)	67 to 72
O=C1CCC(N2Cc3c(OCc4ccc(Cc5nc6ccccc6[nH]5)cc4)cccc3C2=O)C(=O)N1 (stereo not given)	203 to 205
CCCCn1c(COCC)nc2c(N)nc3ccccc3c21	139 to 140
Cc1c[nH]c(-c2ccc(OCC(O)CO)cc2)n1 (stereo not given)	196 to 199
CCOCCn1c(N2CCCN(CCC3(c4ccccc4)CCN(C(=O)c4cc(NC(C)=O)ccc4OC)C3)CC2)nc2ccccc21 (stereo not given)	145 to 150
C[C@@H](NC(=O)c1ccc(-c2ccccn2)s1)[C@](O)(Cn1cncn1)c1ccc(F)cc1F	212 to 213
COC(=O)c1ccc(Cn2c(=O)c3cc(C(=O)NCc4cccc(OC)c4)sc3n(C)c2=O)cc1OC	200 to 203
COC(c1ccccc1)c1cc(C(F)(F)F)nc2c(C(F)(F)F)cccc12 (stereo not given)	115 to 117
Cc1cc(Nc2cncc(Nc3ccc(Cl)c(OCCN(C)C)c3)n2)n[nH]1	145 to 147
NC(=O)Cc1ccccc1OCCn1ccnc1	116 to 118
CCC(=O)Nc1cccc(NC(=O)CC(C)(OC)OC)c1	115
CC(C)NC(=O)C1OC1c1ccccc1 (stereo not given)	114 to 115
C#CCOc1nc(-n2nc3ccc(Cl)cn3c2=O)c(F)cc1C#N	207 to 209
COc1cc2c(cn1)CCCC2=NO	175 to 178
CCNC(=O)c1cnn(-c2ccccc2)c1Br	158 to 160
CC(C)(C)C1(COc2ccc(Cl)cc2)OS(=O)NC1=O (stereo not given)	132 to 134
Cc1cc(CSCCNc2nc(NC(=O)Nc3ccccc3)nn2C)oc1CN(C)C	166 to 167
O=c1[nH]c2cc(Cl)c([N+](=O)[O-])cc2n(C2CCCCC2)c1=O	> 300
O=C1OC(CO)CN1c1ccccc1 (stereo not given)	122 to 124
Nc1cc(-c2nnc(CCc3cccc(F)c3)o2)ccn1	165 to 166
N#Cc1ccc(Oc2ccccc2Oc2ccc(C#N)cc2)cc1	112

Compound	melting point [°C]
N#Cc1ccc2[nH]c(C(N)=O)cc2c1	> 300
O=C(NCCCCN1CCC(c2ccc3c(c2)OCO3)CC1)c1ccc(NC(=O)c2ccc(Cl)cc2)cc1	238 to 248
Oc1nc(Nc2ccc(O)c(Cl)c2)cc(-c2ccccc2)n1	280 to 282
CCOP(=O)(NC(=O)c1cc(=O)c2ccccc2o1)OCC	182 to 183
COCc1cc(-c2c(S(C)(=O)=O)ccc(C(=O)C3C(=O)CCCC3=O)c2Cl)no1	39 to 40
O=[N+]([O-])c1cc(Cl)c(Cl)cc1N[C@H]1C=C[C@@H](CO)C1	94.5 to 96.5
CN1CCC(N(C)S(=O)(=O)c2ccc(Nc3nccc(Nc4ccc(F)c(F)c4)n3)cc2)CC1	181 to 183
COC(=O)C(=O)c1ccc(OCCOCCOc2ccccc2)cc1	75 to 76
Nc1nnc(-c2ccc(Cl)cc2)s1	221
COc1cc(C(C)=O)ccc1OCCCN1CCN(c2n[nH]c3cc(F)ccc23)CC1	135 to 137
C=C(CC1(CC(=C)C(=O)OC(C)(C)C)C(=O)N(C)C(=O)N(C)C1=O)C(=O)OC(C)(C)C	90 to 91
CC(C)c1c(CCl)c(-c2ccc(F)cc2)nn1-c1ccccc1	124 to 128
Cc1oc(-c2cc3ccccc3s2)nc1COc1ccc(CCCCn2cncn2)cc1	131 to 132
COc1ccc2c(c1)c(CC(=O)O)c(C)n2C(=O)c1cccc(Cl)c1	90 to 92
COc1ccc(C2Sc3ccccc3N(CC(N)=O)C(=O)C2NC(=O)c2ccc3ccccc3c2)cc1 (stereo not given)	243 to 245
COc1ccc(Nc2cccc3c2C(=O)N(C2CCC(=O)NC2=O)C3=O)cc1OC (stereo not given)	215 to 217
O=c1oc(OCCBr)c(Cl)c2ccc(NC(=S)Nc3ccccc3)cc12	157 to 158
N#Cc1ccc(S(=O)(=O)Nc2ccc(Br)c3cc[nH]c23)cc1	214 to 216
COC[C@H]1CN(c2ccc(OCCC3(C(F)(F)F)OCCO3)cc2)C(=O)O1	112
O=C(NC1CC1)c1nc(-c2ccccc2)c(-c2ccc(=O)[nH]n2)s1	> 250
CS(=O)(=O)c1ccc(Oc2cc(OCc3cccc(Cl)n3)c3[nH]c(C4=NCC(CC(=O)O)S4)cc3c2)cc1 (stereo not given)	175 to 176
Cc1oc(=O)oc1COC(=O)c1oc2cccc(O)c2c1C	168 to 170
CNc1ccccc1CS(=O)c1nccn1-c1ccccn1 (stereo not given)	135 to 137
Cc1nc(CN(C)C)n(-c2ccc(Cl)cc2C(=O)c2ccccc2Cl)c1CN1C(=O)c2ccccc2C1=O	121 to 150
N#Cc1ccc2c(c1)CCC(CO)O2 (stereo not given)	85

Compound	melting point [°C]
Cc1cc(-c2cc(C(F)(F)F)nn2-c2ccc(S(N)(=O)=O)cc2)ccc1-c1cocn1	112 to 114
O=C(CCc1c[nH]c2ccccc12)NCc1ccccc1	73 to 75
CCCCOc1c(CNC(=O)OC(C)(C)C)n(CC2CC2)c(=O)c2ccc(C(N)=O)cc12	202 to 203
O=C1CCC(N2Cc3c(OCc4cccc(CN5CCN(S(=O)(=O)C(F)(F)F)CC5)c4)cccc3C2=O)C(=O)N1 (stereo not given)	150 to 152
CC(NC(=O)C=Cc1ccccc1F)c1ccc2c(c1)N(C)CCC2 (stereo not given)	60 to 63
Cn1cc(C(=O)c2ccc(Cl)cc2)cc1C(=O)CCl	130 to 132
CCCNC(=O)CCn1c(C)nc2c(N)nc3ccccc3c21	188 to 189
COC(=O)c1cc(OC)cc2cc(-c3ccc(OC)c(F)c3)oc12	121 to 123
Fc1cccc(F)c1-c1ncc(-c2ccc(-c3ccc(OC(F)(F)F)cc3)cc2)nn1	225 to 230
COc1cc(OC)nc(Oc2cccc3c2C(=O)OC3SC#N)n1 (stereo not given)	161 to 163
CN(C)c1ncnc2c(-c3ccncc3)cnn12	184 to 185
O=C(O)c1nc2cc(N3CCCCC3)c([N+](=O)[O-])cc2[nH]c1=O	> 300
COC(=O)Cn1c(=O)c(=O)[nH]c2cc(C(F)(F)F)c(-n3cccc3)cc21	141 to 142
CC(C)c1ccc(C(=O)N2CCOCC2)cc1N	112 to 115
Cc1cc(NC2=NCCN2C)n(C)n1	128 to 130
CCCOCC1(C)CCCOc2cc(/C=C/c3ccc(C(=O)O)cc3)ccc21 (stereo not given)	164 to 165
Cc1c(S(C)=O)c(C#N)nn1-c1c(Cl)cc(C(F)(F)F)cc1Cl (stereo not given)	109 to 115
CCOC(=O)c1cccc(NC(=O)Nc2ccc(-n3nc(C(F)(F)F)cc3C(F)(F)F)cc2)c1	211 to 212
C#CC(Oc1cc(C(=O)OC)cc(OC)c1OC)C1CC1 (stereo not given)	93 to 94
CCN1CCN(c2cc3ccccc3c(=O)[nH]2)C[C@@H]1CO	171 to 173
CCCCC(Cn1cncn1)(C(N)=O)c1ccc(Cl)cc1 (stereo not given)	197 to 199
CC(=O)OC1C(Oc2cc(C)cc(O)c2C(=O)CCc2ccc3occc3c2)OC(CO)C(O)C1OC(C)=O (stereo not given)	151 to 153
CC(C)(C)C(O)(C=Cc1ccc(C2OCCO2)cc1)Cn1cncn1 (stereo not given)	110
O=C(CN1CCC(Cc2ccccc2)CC1)Nc1ccc2c(c1)NC(=O)CO2	220 to 222
OCCOc1cccc(-c2n[nH]c3c2Cc2ccccc2-3)c1	203 to 205

Compound	melting point [°C]
CC1(C(O)(COc2ccc(Cl)cc2)Cn2cncn2)CC1(F)F (stereo not given)	110
CCOC(=O)Cc1c(C(=O)OCC)c(C)c(C(=O)c2ccc(C)cc2)n1C	108 to 111
CC12CCC(=O)C(N)=C1CCC1C2CCC2(C)C(OC3CC3)CCC12 (stereo not given)	85 to 88
COc1cc2c(cc1-c1ccoc1)C(=CNc1ccc(N3CCN(C)CC3)cc1)C(=O)NC2=O	198 to 220
CCCCC(CC)Nc1cc(C)nc(Cl)c1[N+](=O)[O-] (stereo not given)	48 to 49
CC(=O)Nc1cc(Cl)c(C)c(Cl)c1O	175 to 176
COC[C@H](Cc1ccccc1)NC(=O)[C@@H](CC(=O)OCc1ccccc1)NC(=O)OC(C)(C)C	60 to 63
CCOP(=O)(/C=C/c1cn(-c2ccccc2)nc1OCc1ccc(OCc2nc(-c3ccc(C(=O)O)cc3)oc2C)c(OC)c1)OCC	194 to 195
CSc1nc(-c2ccc(=O)n(C)n2)c(-c2ccccc2)nc1N	204 to 206
Cn1c(=O)ccc2cc(COc3cc(F)cc(C4(SC(C)(C)C)CCOCC4)c3)ccc21	54 to 56
C#Cc1cn(C2CC(O)C(COC(c3ccccc3)(c3ccccc3)c3ccccc3)O2)c(=O)[nH]c1=O (stereo not given)	110
CC(C)C1(C)Cc2cc(OCC(=O)O)c(Cl)c(Cl)c2C1=O (stereo not given)	148
CCCn1c2c(c3c4c(-c5ccccc5)csc4ccc31)CN(C)CC2	156
COC(=O)[C@@H]1CCCCOc2ccc(cc2)C[C@H](NC(=O)OC(C)(C)C)C(=O)N[C@@H](C(C)C)C(=O)N1	225 to 228
Cc1c(OCc2ccccc2)c(=O)ccn1CCO	192 to 193
Cn1c(=O)c(C(=O)NC2CCCCC2)c(O)c2ccccc21	145
CCNc1nc(-c2ccccc2)c(-c2ccccc2)nc1Cl	115 to 122
CCOP(=O)(Cc1cc(C2CCCCC2)c(O)c(C2CCCCC2)c1)OCC	120
CCCn1c(=O)c2[nH]c(/C=C/c3ccccc3F)nc2n(CCC)c1=O	259
CC(C)COC(=O)C(=O)c1csc(N)n1	105 to 108
CN1Cc2cncn2C(c2ccc(Br)cc2)C1=O (stereo not given)	143 to 144
COC(=O)CCc1oc(=O)[nH]c1-c1ccc(Cl)cc1	147 to 148
CN(C)C(=O)Nc1cc(Br)ccc1N1CCc2ccccc21	119 to 121
Cn1cnc(COc2nn3c(-c4ccccc4)nnc3c(Cl)c2N2CCCC2)n1	198 to 199
C=CCNC(=O)NCC1Cc2ccc(-c3ccc(=O)[nH]n3)cc2C1 (stereo not given)	208 to 209
